Experimental data as given in patent publication US8815872B2, “Macrocyclics pyrimidines as aurora kinase inhibitors” (Merck Patent GmbH, priority 2008, dated 2014).
pIC50: −log10 of the molar value.

Legend:
[1] = molecular target: T1, PDK1(h) (Homo sapiens, UniProt O15530); test: Other kinases, single-concentration inhibition (Table 3); format: biochemical
T1 construct: purchased Caliper Life Sciences
T1 sequence (O15530 1-556): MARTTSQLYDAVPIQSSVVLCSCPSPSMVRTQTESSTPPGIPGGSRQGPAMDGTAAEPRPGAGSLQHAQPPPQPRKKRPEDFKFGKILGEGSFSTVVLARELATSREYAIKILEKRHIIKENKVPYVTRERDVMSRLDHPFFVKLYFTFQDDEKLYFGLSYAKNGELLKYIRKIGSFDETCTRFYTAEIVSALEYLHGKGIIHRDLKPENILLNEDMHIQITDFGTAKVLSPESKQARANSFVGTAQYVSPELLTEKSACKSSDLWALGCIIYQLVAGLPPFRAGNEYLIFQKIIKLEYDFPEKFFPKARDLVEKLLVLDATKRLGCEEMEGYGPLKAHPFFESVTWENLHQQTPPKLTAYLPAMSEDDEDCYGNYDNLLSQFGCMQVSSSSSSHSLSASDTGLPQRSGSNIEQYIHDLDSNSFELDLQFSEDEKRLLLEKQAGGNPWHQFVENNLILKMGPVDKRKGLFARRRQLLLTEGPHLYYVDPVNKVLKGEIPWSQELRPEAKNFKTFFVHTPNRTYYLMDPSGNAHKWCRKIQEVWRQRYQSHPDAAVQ
In short: (§1)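 Single-concentration compound tested on pre-made kinase plates with fluorescent peptide substrate/ATP; reaction 90 min at 25 °C, stopped with EDTA. Substrate/product separated by mobility shift (Caliper); percent inhibition vs no-inhibitor and no-ATP controls.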

[2] = molecular target: T2, CDK2/cyclinE(h) (Homo sapiens, UniProt P24941); test: as above; format: biochemical
T2 construct: purchased Caliper Life Sciences
In short: as §1

[3] = molecular target: T3, FAK(h) (Homo sapiens, UniProt Q05397); test: as above; format: biochemical
T3 construct: purchased Caliper Life Sciences
In short: as §1

[4] = molecular target: T4, ALK(h) (Homo sapiens, UniProt Q9UM73); test: as above; format: biochemical
T4 construct: purchased Caliper Life Sciences
In short: as §1

[5] = molecular target: T5, Flt3(h) (Homo sapiens, UniProt P36888); test: as above; format: biochemical
T5 construct: purchased Caliper Life Sciences
T5 sequence (P36888 27-993): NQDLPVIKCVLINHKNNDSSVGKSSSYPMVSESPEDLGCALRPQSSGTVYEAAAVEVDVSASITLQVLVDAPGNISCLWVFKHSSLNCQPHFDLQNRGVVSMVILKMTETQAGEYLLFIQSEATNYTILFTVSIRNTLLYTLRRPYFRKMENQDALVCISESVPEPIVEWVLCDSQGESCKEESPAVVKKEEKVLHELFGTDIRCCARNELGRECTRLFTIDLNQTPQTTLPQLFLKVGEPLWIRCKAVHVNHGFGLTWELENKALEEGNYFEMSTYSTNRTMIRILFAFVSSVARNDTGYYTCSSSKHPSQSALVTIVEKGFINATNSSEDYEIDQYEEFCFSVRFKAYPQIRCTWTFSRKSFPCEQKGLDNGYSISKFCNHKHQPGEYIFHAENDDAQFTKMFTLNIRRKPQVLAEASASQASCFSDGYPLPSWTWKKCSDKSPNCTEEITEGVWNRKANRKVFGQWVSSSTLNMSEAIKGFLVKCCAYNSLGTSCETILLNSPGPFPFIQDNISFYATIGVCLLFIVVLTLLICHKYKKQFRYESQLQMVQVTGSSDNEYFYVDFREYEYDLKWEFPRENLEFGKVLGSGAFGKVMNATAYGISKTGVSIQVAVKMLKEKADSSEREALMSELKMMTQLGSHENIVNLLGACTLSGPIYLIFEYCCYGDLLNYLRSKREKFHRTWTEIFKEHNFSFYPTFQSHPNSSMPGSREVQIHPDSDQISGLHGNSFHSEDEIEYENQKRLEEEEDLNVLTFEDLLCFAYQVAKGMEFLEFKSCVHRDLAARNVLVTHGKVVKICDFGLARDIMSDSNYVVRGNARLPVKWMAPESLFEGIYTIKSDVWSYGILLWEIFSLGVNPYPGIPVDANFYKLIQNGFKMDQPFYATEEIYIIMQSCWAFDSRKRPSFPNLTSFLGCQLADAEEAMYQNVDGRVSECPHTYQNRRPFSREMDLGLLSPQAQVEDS
In short: as §1

[6] = molecular target: T6, KDR(h) (Homo sapiens, UniProt P35968); test: as above; format: biochemical
T6 construct: purchased Caliper Life Sciences
In short: as §1

[7] = molecular target: T7, TrkB(h) (Homo sapiens, UniProt Q16620); test: as above; format: biochemical
T7 construct: purchased Caliper Life Sciences
In short: as §1

[8] = molecular target: T8, EGFR(h) (Homo sapiens, UniProt P00533); test: as above; format: biochemical
T8 construct: purchased Caliper Life Sciences
In short: as §1

[9] = test system: AMPK(r); test: as above; format: biochemical, rat
Procedure: (§2) The Aurora and other kinase assays described here were performed on two Caliper Life Sciences systems, the LC3000 and the Desktop Profiler. These provide data on enzyme activity via measurement of the relative amounts of phosphorylated or unphosphorylated fluorescently labelled substrate peptide at the end of an enzymatic reaction. These different states of peptide are resolved by applying a potential difference across the sample. The presence of a charged phosphate group on the product (as opposed to the substrate) causes a different peptide mobility between the two peptides. This is visualized by excitation of a fluorescent label on the substrate and product peptides and represented as peaks within the analysis software.
The Desktop Profiler utilizes the same principal as the LC 3000 for calculating percentage conversion of a substrate to product. Caliper Life Sciences provided proprietary flash frozen pre-made 384 well plates containing selected kinases. Each column in the 384 well plate contained a particular selected kinase. A second plate, the ‘substrate plate’ contained a mix of fluorescently labeled peptide substrate and ATP. These were arranged in columns so that transfer for substrate plate to enzyme plate provided the correct enzyme with the correct substrate/ATP concentration.
Compounds were added to a thawed enzyme plate in the desired format, in single concentrations. Reactions were initiated by transfer of the ubstrate/ATP mix from the substrate plate. The enzyme plate was incubated for 90 mins at 25 °C. The reaction was stopped by addition of […] of Stop Buffer (100 mM HEPES pH 7.5, 0.015% Brij-35, 10 mM EDTA (Sigma, E7889)).
Plates were read in a manner identical to that of the LC3000, and the ratio between substrate and product peaks provided the activity of the enzyme in that well. This was best represented by a plate heat map which colors each well by percent inhibition as compared to positive and negative controls (no inhibitors and no ATP respectively).

[10] = molecular target: T9, Tie2(h) (Homo sapiens, UniProt Q02763); test: Inhibition of other kinases IC50 (Table 2); format: biochemical
T9 construct: purchased Caliper Life Sciences
Procedure: as §2

[11] = molecular target: T10, Ret(h) (Homo sapiens, UniProt P07949); test: Inhibition of other kinases IC50 (Table 2); format: biochemical
T10 construct: purchased Caliper Life Sciences
Procedure: as §2

T4 sequence (Q9UM73 19-1620): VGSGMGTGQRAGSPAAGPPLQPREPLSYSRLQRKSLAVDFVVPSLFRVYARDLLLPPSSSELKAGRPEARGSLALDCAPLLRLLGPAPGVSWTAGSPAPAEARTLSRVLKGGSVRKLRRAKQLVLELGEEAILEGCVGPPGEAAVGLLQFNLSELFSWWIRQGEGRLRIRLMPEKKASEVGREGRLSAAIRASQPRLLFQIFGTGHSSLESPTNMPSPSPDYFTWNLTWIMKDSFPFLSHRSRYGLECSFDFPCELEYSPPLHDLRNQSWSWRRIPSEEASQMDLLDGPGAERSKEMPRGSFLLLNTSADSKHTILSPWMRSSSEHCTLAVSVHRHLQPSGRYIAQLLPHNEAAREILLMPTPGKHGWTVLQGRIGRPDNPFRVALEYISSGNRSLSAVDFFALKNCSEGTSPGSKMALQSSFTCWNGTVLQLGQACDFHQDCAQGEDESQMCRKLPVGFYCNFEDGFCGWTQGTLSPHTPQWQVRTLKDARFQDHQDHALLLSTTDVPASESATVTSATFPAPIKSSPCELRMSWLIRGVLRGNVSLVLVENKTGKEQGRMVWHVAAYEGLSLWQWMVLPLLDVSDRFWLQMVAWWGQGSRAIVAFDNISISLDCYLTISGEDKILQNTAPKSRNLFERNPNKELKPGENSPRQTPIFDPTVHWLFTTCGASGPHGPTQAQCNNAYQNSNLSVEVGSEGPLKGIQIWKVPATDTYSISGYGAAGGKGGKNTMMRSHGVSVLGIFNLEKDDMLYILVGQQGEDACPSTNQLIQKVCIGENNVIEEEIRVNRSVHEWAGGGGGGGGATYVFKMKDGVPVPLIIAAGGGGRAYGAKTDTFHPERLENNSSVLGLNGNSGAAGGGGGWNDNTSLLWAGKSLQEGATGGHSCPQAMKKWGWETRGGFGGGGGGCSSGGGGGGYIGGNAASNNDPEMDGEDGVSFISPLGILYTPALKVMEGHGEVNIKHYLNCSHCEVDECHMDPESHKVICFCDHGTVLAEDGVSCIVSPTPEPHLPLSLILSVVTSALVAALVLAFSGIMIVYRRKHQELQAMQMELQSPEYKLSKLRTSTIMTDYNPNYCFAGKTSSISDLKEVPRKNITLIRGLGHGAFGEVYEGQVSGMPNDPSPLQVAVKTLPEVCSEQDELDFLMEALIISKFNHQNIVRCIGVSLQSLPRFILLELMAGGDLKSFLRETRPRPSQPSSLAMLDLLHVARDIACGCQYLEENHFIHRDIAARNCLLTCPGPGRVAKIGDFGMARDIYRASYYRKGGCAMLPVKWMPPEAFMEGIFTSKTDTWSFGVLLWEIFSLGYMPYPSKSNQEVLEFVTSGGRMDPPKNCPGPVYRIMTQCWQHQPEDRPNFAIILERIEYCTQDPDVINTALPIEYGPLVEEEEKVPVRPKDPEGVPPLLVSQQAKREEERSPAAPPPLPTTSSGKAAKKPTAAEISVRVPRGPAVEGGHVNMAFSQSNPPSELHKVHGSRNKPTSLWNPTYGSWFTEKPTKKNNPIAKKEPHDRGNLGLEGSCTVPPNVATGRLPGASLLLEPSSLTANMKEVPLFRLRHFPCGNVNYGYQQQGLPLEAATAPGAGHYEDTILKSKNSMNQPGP
T3 sequence (Q05397 whole entry): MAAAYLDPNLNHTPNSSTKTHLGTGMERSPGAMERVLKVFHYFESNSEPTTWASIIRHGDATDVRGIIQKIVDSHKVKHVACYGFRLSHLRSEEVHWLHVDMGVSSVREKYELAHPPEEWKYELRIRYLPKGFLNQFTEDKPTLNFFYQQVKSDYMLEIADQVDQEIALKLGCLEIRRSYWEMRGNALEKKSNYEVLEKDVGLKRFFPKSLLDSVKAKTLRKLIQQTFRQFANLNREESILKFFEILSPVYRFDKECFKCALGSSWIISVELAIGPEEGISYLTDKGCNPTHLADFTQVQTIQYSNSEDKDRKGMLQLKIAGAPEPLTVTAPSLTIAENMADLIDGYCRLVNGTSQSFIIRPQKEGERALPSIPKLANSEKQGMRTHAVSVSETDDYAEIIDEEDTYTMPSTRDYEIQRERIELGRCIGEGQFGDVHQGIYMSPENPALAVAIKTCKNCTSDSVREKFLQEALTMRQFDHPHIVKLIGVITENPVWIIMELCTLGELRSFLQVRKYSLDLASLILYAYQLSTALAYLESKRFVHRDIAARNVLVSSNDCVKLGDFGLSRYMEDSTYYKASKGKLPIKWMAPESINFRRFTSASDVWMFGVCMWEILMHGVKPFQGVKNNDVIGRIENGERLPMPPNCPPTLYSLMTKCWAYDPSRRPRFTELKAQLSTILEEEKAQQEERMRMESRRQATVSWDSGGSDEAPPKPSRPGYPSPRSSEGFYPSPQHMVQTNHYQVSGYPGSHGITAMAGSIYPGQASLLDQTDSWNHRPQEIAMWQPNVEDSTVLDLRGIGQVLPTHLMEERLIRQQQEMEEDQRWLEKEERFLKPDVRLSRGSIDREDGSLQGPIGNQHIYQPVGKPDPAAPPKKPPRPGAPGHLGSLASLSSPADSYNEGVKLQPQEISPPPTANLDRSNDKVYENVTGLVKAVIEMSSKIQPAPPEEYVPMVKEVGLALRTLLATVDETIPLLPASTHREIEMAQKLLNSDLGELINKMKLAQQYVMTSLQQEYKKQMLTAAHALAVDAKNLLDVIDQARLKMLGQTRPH
T6 sequence (P35968 20-1356): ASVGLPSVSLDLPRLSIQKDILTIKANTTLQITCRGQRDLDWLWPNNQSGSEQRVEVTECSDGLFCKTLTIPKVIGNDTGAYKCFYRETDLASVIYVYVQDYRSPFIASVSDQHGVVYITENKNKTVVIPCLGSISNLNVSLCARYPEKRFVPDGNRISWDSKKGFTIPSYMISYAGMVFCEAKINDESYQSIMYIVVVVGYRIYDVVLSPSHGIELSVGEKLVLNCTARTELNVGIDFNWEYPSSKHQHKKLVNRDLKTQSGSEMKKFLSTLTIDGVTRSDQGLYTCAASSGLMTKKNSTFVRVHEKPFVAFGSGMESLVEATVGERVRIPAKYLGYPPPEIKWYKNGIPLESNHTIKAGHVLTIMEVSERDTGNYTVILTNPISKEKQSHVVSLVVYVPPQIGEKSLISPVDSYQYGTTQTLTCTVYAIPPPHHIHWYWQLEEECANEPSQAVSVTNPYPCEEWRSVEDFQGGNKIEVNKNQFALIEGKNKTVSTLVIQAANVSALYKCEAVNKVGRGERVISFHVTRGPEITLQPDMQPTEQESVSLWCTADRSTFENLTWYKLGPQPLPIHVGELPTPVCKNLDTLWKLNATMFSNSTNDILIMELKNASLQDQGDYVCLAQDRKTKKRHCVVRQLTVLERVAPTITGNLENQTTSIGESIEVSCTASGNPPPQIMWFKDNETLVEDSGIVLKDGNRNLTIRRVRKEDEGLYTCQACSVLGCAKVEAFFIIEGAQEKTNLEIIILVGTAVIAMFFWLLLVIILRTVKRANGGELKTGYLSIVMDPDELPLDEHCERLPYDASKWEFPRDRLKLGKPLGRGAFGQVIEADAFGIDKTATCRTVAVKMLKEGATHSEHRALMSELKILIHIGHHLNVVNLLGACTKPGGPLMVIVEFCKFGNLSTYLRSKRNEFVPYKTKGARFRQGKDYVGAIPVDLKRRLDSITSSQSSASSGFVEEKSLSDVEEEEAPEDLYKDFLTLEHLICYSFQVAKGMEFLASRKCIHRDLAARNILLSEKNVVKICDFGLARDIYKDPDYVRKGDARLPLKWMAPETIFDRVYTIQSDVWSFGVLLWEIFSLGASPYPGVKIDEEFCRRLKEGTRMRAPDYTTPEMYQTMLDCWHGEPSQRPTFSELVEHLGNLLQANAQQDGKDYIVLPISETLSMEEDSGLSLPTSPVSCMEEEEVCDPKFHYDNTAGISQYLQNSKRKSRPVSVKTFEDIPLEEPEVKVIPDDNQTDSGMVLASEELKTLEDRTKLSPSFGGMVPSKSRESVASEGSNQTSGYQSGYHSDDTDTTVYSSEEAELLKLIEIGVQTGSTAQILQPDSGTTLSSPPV
T7 sequence (Q16620 32-822): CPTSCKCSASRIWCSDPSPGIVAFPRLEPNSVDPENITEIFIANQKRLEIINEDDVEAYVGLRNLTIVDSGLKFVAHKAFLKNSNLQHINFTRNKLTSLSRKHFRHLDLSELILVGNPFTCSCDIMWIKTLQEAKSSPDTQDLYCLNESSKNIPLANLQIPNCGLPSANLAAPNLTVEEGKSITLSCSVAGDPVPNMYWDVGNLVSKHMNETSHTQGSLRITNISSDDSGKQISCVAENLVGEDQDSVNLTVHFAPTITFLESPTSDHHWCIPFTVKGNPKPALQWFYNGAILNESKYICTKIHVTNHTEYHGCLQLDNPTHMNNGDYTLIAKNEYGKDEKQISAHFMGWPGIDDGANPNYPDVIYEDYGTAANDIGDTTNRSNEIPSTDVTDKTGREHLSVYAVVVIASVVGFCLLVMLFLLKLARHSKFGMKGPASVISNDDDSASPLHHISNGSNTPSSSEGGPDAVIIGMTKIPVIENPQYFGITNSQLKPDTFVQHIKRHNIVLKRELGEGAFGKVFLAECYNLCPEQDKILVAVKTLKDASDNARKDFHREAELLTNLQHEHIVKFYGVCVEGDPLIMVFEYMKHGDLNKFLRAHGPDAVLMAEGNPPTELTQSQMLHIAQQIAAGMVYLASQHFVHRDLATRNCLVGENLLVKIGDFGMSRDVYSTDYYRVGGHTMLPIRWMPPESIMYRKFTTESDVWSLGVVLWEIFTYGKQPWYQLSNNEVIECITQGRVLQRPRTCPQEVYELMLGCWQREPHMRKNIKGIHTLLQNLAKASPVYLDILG

Row | Structure (SMILES) | % inhibition PDK1(h) ([1]; 1 μM) | % inhibition CDK2/cyclinE(h) ([2]; 1 μM) | % inhibition FAK(h) ([3]; 1 μM) | % inhibition ALK(h) ([4]; 1 μM) | % inhibition Flt3(h) ([5]; 1 μM) | % inhibition KDR(h) ([6]; 1 μM) | % inhibition TrkB(h) ([7]; 1 μM) | % inhibition EGFR(h) ([8]; 1 μM) | pIC50 [10] | pIC50 [11] | % inhibition PDK1(h) ([1]; 10 μM) | % inhibition CDK2/cyclinE(h) ([2]; 10 μM) | % inhibition FAK(h) ([3]; 10 μM) | % inhibition ALK(h) ([4]; 10 μM) | % inhibition Flt3(h) ([5]; 10 μM) | % inhibition KDR(h) ([6]; 10 μM) | % inhibition TrkB(h) ([7]; 10 μM) | % inhibition EGFR(h) ([8]; 10 μM) | % inhibition AMPK(r) ([9]; 1 μM) | % inhibition AMPK(r) ([9]; 10 μM)
1 | CC[C@@H]1C[C@@H]2CCCOc3cccc(c3)Nc3ncc(F)c(n3)N[C@H]2[C@H]1C(N)=O (single isomer, unassigned) [Example 5] | 92% | 109% | 91% | 97% | 117% | 70% | 85% | 63% |  |  |  |  |  |  |  |  |  |  | 58% | 
2 | NC(=O)[C@H]1[C@H]2C[C@H]3[C@H]1Nc1nc(ncc1F)Nc1cccc(c1)CSS[C@@H]3C2 [Example 10] | 96% | 23% | 3% | 8% | 65% | 32% | 1% | 53% |  |  |  |  |  |  |  |  |  |  | 86% | 
3 | NC(=O)[C@H]1[C@H]2C[C@H]3[C@H]1Nc1nc(ncc1F)Nc1cccc(c1)C(=O)CS[C@@H]3C2 [Example 11] | 98% | 92% | 77% | 81% | 102% | 101% | 32% | 113% |  |  |  |  |  |  |  |  |  |  | 97% | 
4 | O=C(O)[C@H]1[C@H]2C[C@H]3[C@H]1Nc1nc(ncc1F)Nc1cccc(c1)OCCS[C@@H]3C2 [Example 21] |  |  |  |  |  |  |  |  |  |  | 78% | 89% | 7% | 57% | 2% | 10% | 18% | 49% |  | 57%
5 | CN1CCN(c2ccc3cc2OCCS[C@@H]2C[C@@H]4C[C@H]2[C@@H](Nc2nc(ncc2F)N3)[C@H]4C(N)=O)CC1 [Example 22] | 112% | 133% | 30% | 59% | 24% | 41% | 14% | 48% |  |  |  |  |  |  |  |  |  |  | 65% | 
6 | NC(=O)[C@H]1[C@H]2C[C@H]3[C@H]1Nc1nc(ncc1F)Nc1cccc(c1)NC(=O)CS[C@@H]3C2 [Example 27] | 86% | 60% | 41% | 77% | 66% | 7% | 5% | 34% | 6.00 to 7.00 | 7.00 to 9.00 |  |  |  |  |  |  |  |  | 71% | 

Second part, led by results:

Row | % inhibition PDK1(h) ([1]; 1 μM) | % inhibition CDK2/cyclinE(h) ([2]; 1 μM) | % inhibition FAK(h) ([3]; 1 μM) | % inhibition ALK(h) ([4]; 1 μM) | % inhibition Flt3(h) ([5]; 1 μM) | % inhibition KDR(h) ([6]; 1 μM) | % inhibition TrkB(h) ([7]; 1 μM) | % inhibition EGFR(h) ([8]; 1 μM) | pIC50 [10] | pIC50 [11] | % inhibition PDK1(h) ([1]; 10 μM) | % inhibition CDK2/cyclinE(h) ([2]; 10 μM) | % inhibition FAK(h) ([3]; 10 μM) | % inhibition ALK(h) ([4]; 10 μM) | % inhibition Flt3(h) ([5]; 10 μM) | % inhibition KDR(h) ([6]; 10 μM) | % inhibition TrkB(h) ([7]; 10 μM) | % inhibition EGFR(h) ([8]; 10 μM) | Structure (SMILES) | % inhibition AMPK(r) ([9]; 1 μM) | % inhibition AMPK(r) ([9]; 10 μM)
7 | 102% | 114% | 86% | 86% | 98% | 95% | 83% | 120% |  |  |  |  |  |  |  |  |  |  | C=C[C@@H]1C[C@@H]2/C=C/COc3cccc(c3)Nc3ncc(F)c(n3)N[C@H]2[C@H]1C(N)=O (single isomer, unassigned) [Example 3] | 92% | 
8 | 90% | 107% | 81% | 101% | 116% | 62% | 90% | 67% |  |  |  |  |  |  |  |  |  |  | CC[C@@H]1C[C@@H]2/C=C\COc3cccc(c3)Nc3ncc(F)c(n3)N[C@H]2[C@H]1C(N)=O (single isomer, unassigned) [Example 6] | 51% | 
9 | 80% | 69% | 11% | 60% | 16% | 8% | 5% | 67% | 6.00 to 7.00 | 6.00 to 7.00 |  |  |  |  |  |  |  |  | NC(=O)[C@H]1[C@H]2C[C@H]3[C@H]1Nc1nc(ncc1F)Nc1cccc(c1)OCCS[C@@H]3C2 [Example 20] | 81% | 
10 | 108% | 100% | 30% | 32% | 21% | 8% | 1% | −2% |  |  |  |  |  |  |  |  |  |  | CN1CCN(c2ccc3cc2NC(=O)CS[C@@H]2C[C@@H]4C[C@H]2[C@@H](Nc2nc(ncc2F)N3)[C@H]4C(N)=O)CC1 [Example 24] | 68% | 
11 | 88% | 15% | 35% | 88% | 93% | 8% | 3% | 57% |  |  |  |  |  |  |  |  |  |  | N#Cc1ccc2cc1NC(=O)CS[C@@H]1C[C@@H]3C[C@H]1[C@@H](Nc1nc(ncc1F)N2)[C@H]3C(N)=O [Example 26] | 79% | 
